Experiments:
[1] = xn = mol fraction of the nth substance listed; conditions: 101 kPa, Liquid; for speed of sound: Sing-around technique in a fixed-path interferometer; for mass density: Vibrating tube method
[2] = refractive index (Na D-line) (dimensionless); xn = mol fraction of the nth substance listed; conditions: 101 kPa, Liquid, Standard Abbe refractometry

CCC[N+]1(C)CCCC1.O=S(=O)([N-]S(=O)(=O)C(F)(F)F)C(F)(F)F + CCCO
Conditions	mass density, 298.15 K [kg/m3]	mass density, 303.15 K [kg/m3]	mass density, 308.15 K [kg/m3]	refractive index, 298.15 K	refractive index, 303.15 K	refractive index, 308.15 K	speed of sound, 298.15 K [m/s]	speed of sound, 303.15 K [m/s]	speed of sound, 308.15 K [m/s]
[1], x2 = 0	1427.86	1423.26	1418.83	–	–	–	1270.6	1259.5	1248.6
[1], x2 = 0.0938	1411.16	1406.64	1402.12	–	–	–	1265.5	1254.3	1243.4
[1], x2 = 0.1942	1390.36	1385.82	1381.28	–	–	–	1259.2	1248	1236.8
[1], x2 = 0.3092	1361.8	1357.24	1352.68	–	–	–	1250.8	1239.4	1228.1
[1], x2 = 0.3925	1336.96	1332.37	1327.8	–	–	–	1243.8	1232.2	1220.8
[1], x2 = 0.5031	1296.59	1291.99	1287.39	–	–	–	1233	1221.2	1209.4
[1], x2 = 0.6035	1249.57	1244.97	1240.35	–	–	–	1221.4	1209.3	1197.2
[1], x2 = 0.6084	1246.93	1242.32	1237.71	–	–	–	1220.8	1208.7	1196.6
[1], x2 = 0.6973	1192.26	1187.68	1183.08	–	–	–	1209.2	1196.7	1184.2
[1], x2 = 0.8048	1102.79	1098.29	1093.76	–	–	–	1194.6	1181.5	1168.3
[1], x2 = 0.8994	988.76	984.42	980.03	–	–	–	1187.7	1173.4	1159.1
[1], x2 = 0.9465	912.36	908.13	903.87	–	–	–	1192	1176.5	1161.2
[2], x2 = 0	–	–	–	1.42064	1.41926	1.41782	–	–	–
[2], x2 = 0.0938	–	–	–	1.41963	1.41825	1.41678	–	–	–
[2], x2 = 0.1942	–	–	–	1.41841	1.41693	1.4155	–	–	–
[2], x2 = 0.3092	–	–	–	1.41669	1.41521	1.41375	–	–	–
[2], x2 = 0.3925	–	–	–	1.41523	1.41377	1.41227	–	–	–
[2], x2 = 0.5031	–	–	–	1.41287	1.41135	1.40984	–	–	–
[2], x2 = 0.6035	–	–	–	1.41013	1.40858	1.40703	–	–	–
[2], x2 = 0.6084	–	–	–	1.40996	1.40837	1.40681	–	–	–
[2], x2 = 0.6973	–	–	–	1.40685	1.40519	1.40364	–	–	–
[2], x2 = 0.8048	–	–	–	1.40163	1.40019	1.39885	–	–	–
[2], x2 = 0.8994	–	–	–	1.39494	1.39356	1.39205	–	–	–
[2], x2 = 0.9465	–	–	–	1.39023	1.38843	1.38653	–	–	–

Reference: the NIST ThermoML archive (doi:10.1016/j.jct.2013.08.021)
